From PubChem BioAssay AID2740 (NMMLSC, 2010)
Activity calls are given as the source filed them.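 Rule for the calls: active = compounds whose fitted half-maximal concentration for changing the GFP signal is at or below a set limit; inactive = the rest.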

Test: TOR pathway RPL19A-GFP modulators, concentration series – cell-based, S. cerevisiae, flow cytometry, MLPCN hits, dose response (AID 2740);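 note: background is signal of the same compound in parental non-GFP s288c yeast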
Conditions: S. cerevisiae RPL19A-GFP strain, flow cytometry fluorescence, 3 h; at 33 µM (top of the series)

Row | SMILES | GFP fluorescence, lower = active (kMESF (background-subtracted))
1 | CC1(c2ccccc2)ON(c2ccccc2C(F)(F)F)C1=O (stereo not drawn) | 40 (inactive)
2 | O=c1[nH]c(-c2ccc(Cl)cc2)cs1 | 41.6 (inactive)
3 | O=C1ON=C(c2ccccc2)/C1=C/c1ccco1 | 28.4 (inactive)
4 | COc1ccc(-c2cc3nc4n(c(=O)c3s2)CCC4)cc1 | 21.6 (inactive)
5 | Cc1nn2c(NCc3ccccn3)c3c(nc2c1-c1ccccc1)CCC3 | 44.3 (inactive)
6 | O=C(O)/C=C/C(=O)c1ccc2c(c1)CCc1ccccc1-2 | 16.8 (inactive)
7 | CCCCNc1c2c3c(cccc3n(C)c1=O)C(=O)c1ccccc1-2 | 39.9 (inactive)
8 | N#Cc1c2ccc([N+](=O)[O-])cc2[n+]([O-])n1-c1ccccc1 | 51.8 (inactive)
9 | CN(c1ccccc1)c1ccc(/C=c2\s/c(=C(/C#N)C(=O)C(C)(C)C)n(Cc3ccco3)c2=O)cc1 | 56 (inactive)
10 | Cc1c(Cc2ccccc2)c(NCCN(C)C)n2c(nc3ccccc32)c1C#N | 46.6 (inactive)
11 | COc1ccc(C(=O)NC(=S)NNC(=O)CCc2ccccc2)cc1 | 46.5 (inactive)
12 | C/C(=N/NC(=O)c1ccc(C(C)(C)C)cc1)c1ccccn1 | 45.9 (inactive)
13 | Cc1cc(Br)c2c(c1)/C(=C/C(=O)c1cccs1)C(=O)N2 | 40.3 (inactive)
14 | CCOc1cc(C=C2C(=O)c3ccccc3C2=O)ccc1OCC(=O)Nc1ccc(C)cc1 | 43.8 (inactive)
15 | O=C(Oc1c(Cl)cc(Cl)c2cccnc12)c1cccc([N+](=O)[O-])c1 | 24.8 (inactive)
16 | O=[N+]([O-])c1cc(F)c2cccnc2c1O | 25.6 (inactive)
17 | CCOC(=O)CSC1=NC(=O)/C(=C\c2ccc(Cl)cc2)S1 | 31.9 (inactive)
18 | Oc1c(Br)cc(Br)cc1C=Nc1ccc2[nH]ncc2c1 | 36 (inactive)
19 | Clc1cnc(N/N=C/c2cccs2)c(Cl)c1 | 43.5 (inactive)
20 | N/C(Cc1ccc(Cl)c(Cl)c1)=N\OC(=O)c1cccs1 | 40.7 (inactive)
21 | Cc1cc(C)c(OCC(=O)Nc2nc(-c3ccccn3)cs2)c(C)c1 | 39.3 (inactive)

Row | SMILES | GFP fluorescence, lower = active (kMESF (background-subtracted))
22 | O=C(/C=C/c1ccccc1Cl)c1ccccc(=O)c1O | 5.26 (inactive)
23 | Cc1ccc(S(=O)(=O)Cc2cc(F)c([N+](=O)[O-])cc2[N+](=O)[O-])cc1 | 7.75 (inactive)
24 | Cc1[nH]c(-c2ccccn2)nc(=S)c1Cl | 30.8 (inactive)
25 | COc1ccc(C(=O)/C=C2/C(=O)Nc3ccccc32)c(OC)c1 | 37.3 (inactive)
26 | COc1cccc(/C=N/Nc2ccc([N+](=O)[O-])cn2)c1O | 42.1 (inactive)
27 | Clc1cccc(CN2COc3c(cc(Cl)c4cccnc34)C2)c1 | 36.5 (inactive)
28 | Oc1ccc(Br)cc1/C=N/Nc1ccccn1 | 40.5 (inactive)
29 | N=C1/C(=C\c2coc3ccccc3c2=O)C(=O)N=C2SC(c3ccncc3)=NN12 | 25.5 (inactive)
30 | Cc1ccc(/C=C2/SC(=S)N(C3CCCCC3)C2=O)o1 | 38.3 (inactive)
31 | Cc1[nH]c2ccccc2c1C(=O)COC(=O)c1ccc([N+](=O)[O-])s1 | 13.6 (inactive)
32 | O=c1c2cnn(-c3ccccc3)c2ncn1Cc1ccco1 | 35.6 (inactive)
33 | O=C(/C=C/c1ccc(Cl)c([N+](=O)[O-])c1)c1cccnc1 | 36.9 (inactive)
34 | O=C(NNC(=S)NC(=O)c1ccco1)c1ccc(F)cc1 | 49.8 (inactive)
35 | CC(Oc1cc2oc(=O)c3c(c2cc1Cl)CCC3)C(=O)NCCN1CCOCC1 (stereo not drawn) | 37.8 (inactive)
36 | Cc1ccccc1N=Nc1ccc(O)c2ncccc12 | 36.9 (inactive)
37 | Cc1cccc(OCCN2CSC(=S)N(C)C2)c1 | 40.5 (inactive)
38 | Cc1ccc(/C=C/C(=O)c2ccc([N+](=O)[O-])o2)cc1 | 46.1 (inactive)
39 | CC(Oc1cccc(Cl)c1)C(=O)Nc1nc(-c2ccccn2)cs1 (stereo not drawn) | 30 (inactive)
40 | O=C(/C=C/c1ccccc1)c1cc(Br)ccc(=O)c1O | 4.04 (inactive)
41 | Cc1c(Br)c(=O)oc2c(Br)c(O)c(O)cc12 | 38.1 (inactive)
42 | O=C1N(c2ccccc2C(F)(F)F)O[C@]1(c1ccccc1)C1CCCCC1 | 36.4 (inactive)

Row | SMILES | GFP fluorescence, lower = active (kMESF (background-subtracted))
43 | O=C(Nc1ccc(NC(=O)c2cc3ccccc3o2)cc1)c1ccc2c(c1)OCCO2 | 40.1 (inactive)
44 | O=C(c1ccccc1)c1ccccc1N1C(=O)C=CC1=O | 26 (inactive)
45 | CCOC(=O)CS(=O)(=O)c1nc(-c2ccc(F)cc2)cc(C(F)(F)F)n1 | 46.7 (inactive)
46 | COc1ccc(N2CCN(C(=O)c3ccc(Br)cc3)CC2)c([N+](=O)[O-])c1 | 47.4 (inactive)
47 | Cc1ccccc1C(=O)NNC(=S)NC(=O)c1ccc(Cl)cc1Cl | 45.9 (inactive)
48 | Cc1cc2ccccn2c1C(=O)c1ccc([N+](=O)[O-])o1 | 20.7 (inactive)
49 | CCOc1ccc(NC2=C(Cl)C(=O)N(Cc3ccccc3)C2=O)cc1 | 44.3 (inactive)
50 | CN(C)c1ccc(/C=C/c2cc[n+](C)cc2)cc1 | 44.5 (inactive)
51 | Cc1cc(=O)n2c3c(sc2n1)C(=O)N(Cc1ccccc1)C3=O | 42.5 (inactive)
52 | O=C1C=C(c2ccc(Cl)cc2)C(=O)N1Nc1ccccc1 | 18.7 (inactive)
53 | O=S(=O)(/N=C(\Sc1ccc(Cl)cc1)c1ccccc1)c1ccccc1 | 33.6 (inactive)
54 | O=C(c1ccccn1)c1conc1C(=O)c1ccc(Br)cc1 | 38.5 (inactive)
55 | O=C(/C=C/c1ccccc1[N+](=O)[O-])c1ccccc1Br | 44.1 (inactive)
56 | COc1ccc(OCC(=O)NNC(=S)NC(=O)C2CCCCC2)cc1 | 38 (inactive)
57 | CC1=C(C)/C(=N\OS(=O)(=O)c2ccccc2)C=CC1=O | 24.9 (inactive)
58 | CCOC(=O)c1ccc(N=Cc2nc(-c3ccccc3)oc2OC(C)=O)cc1 | 41.6 (inactive)
59 | Clc1ccc(N=c2ssnc2Cl)cc1 | 36.9 (inactive)
60 | COc1ccc(N=Cc2nc(-c3ccccc3)oc2OC(=O)c2ccccc2)cc1 | 46.2 (inactive)
61 | O/C=c1\ccc2cccc3nc(C(F)(F)F)nc1c23 | 53.9 (inactive)
62 | Cc1ccc(C(=O)Oc2oc(-c3ccco3)nc2C=Nc2ccc(Cl)cc2)cc1 | 40.8 (inactive)
63 | CCCc1cc(NCc2ccccn2)n2nc(C)c(-c3ccccc3)c2n1 | 39.1 (inactive)

Row | SMILES | GFP fluorescence, lower = active (kMESF (background-subtracted))
64 | CC(=O)Oc1cccc(N2C(=O)c3cccc4c([N+](=O)[O-])ccc(c34)C2=O)c1 | 39.5 (inactive)
65 | COc1ccc(/C=C/C(=O)NC(=S)NNC(=O)c2cnccn2)cc1 | 49.2 (inactive)
66 | CCCCC(=O)NC(=S)NNC(=O)CCc1ccccc1 | 37.8 (inactive)
67 | Cc1ccccc1OCCOC(=O)c1ccc(S(=O)(=O)N2CCCC2)cc1 | 43.3 (inactive)
68 | CN1C(=O)/C(=N\OC(=O)c2cccc3ccccc23)c2ccccc21 | 42.9 (inactive)
69 | O=C(NCc1ccc2c(c1)OCO2)c1nc(S(=O)(=O)Cc2ccccc2)ncc1Cl | 43.5 (inactive)
70 | O=S(=O)(CCN(CCS(=O)(=O)C(F)(F)F)CC1CCCO1)C(F)(F)F (stereo not drawn) | 27.1 (inactive)
71 | CC(C)(C)C1C/C(=C/c2ccccn2)C(=O)/C(=C/c2ccccn2)C1 (stereo not drawn) | 41.4 (inactive)
72 | O=C(O)c1ccn2c(C(=O)c3ccccc3)c(-c3ccccc3)cc2c1 | 39.3 (inactive)
73 | Cc1ccc(/C=C2\C(=O)NC(=S)N(c3ccc(F)cc3)C2=O)s1 | 38 (inactive)
74 | Oc1ccc(COCc2ccccc2)c2cccnc12 | 46.5 (inactive)
75 | Cc1cc(C(=O)COC(=O)c2ccc[nH]c2=O)c(C)n1-c1ccccc1F | 28.1 (inactive)
76 | COc1cc(/C=C2\C(=O)ON=C2c2ccccc2)cc(OC)c1OC | 33.4 (inactive)
77 | CC(=O)N(\C=C/C=C/C=C1\Sc2ccccc2C1=O)c1ccccc1 | 56.1 (inactive)
78 | COc1ccc(C2=CC3=C(Br)C(=O)C(C)(O)C(=O)C3=CO2)cc1 (stereo not drawn) | 1.92 (inactive)
79 | COc1ccc(N2C(=O)C(Cl)=C(Oc3cccc(OC)c3)C2=O)cc1 | 45.6 (inactive)
80 | Cc1cccc(Nc2nc(-c3ccccn3)cs2)n1 | 29.8 (inactive)
81 | COc1ccc(C(c2c(C)[nH]n(C(N)=S)c2=O)C(C#N)C#N)cc1 (stereo not drawn) | 24.7 (inactive)
82 | O=C1c2cccc3c([N+](=O)[O-])ccc(c23)C(=O)N1c1ccccn1 | 55.8 (inactive)
83 | CCCCOc1ccc(C(=O)NNC(=S)NC(=O)CC)cc1 | 43 (inactive)
